Reference: PubChem BioAssay AID686966 (The Scripps Research Institute Molecular Screening Center, 2013)
Calls of active or inactive are those of the source. The rule behind the calls is not given here.

target: Tyrosine-protein kinase ABL1 (Homo sapiens) + Ras and Rab interactor 1 (Homo sapiens) (UniProt P00519+Q13671); experiment: inhibitors of Rin1-Abl protein interaction, late-stage follow-up, biochemical, TR-FRET, round 2 (AID 686966); conditions: TR-FRET Rin1-Abl binding
Sequence (P00519 whole entry, looked up): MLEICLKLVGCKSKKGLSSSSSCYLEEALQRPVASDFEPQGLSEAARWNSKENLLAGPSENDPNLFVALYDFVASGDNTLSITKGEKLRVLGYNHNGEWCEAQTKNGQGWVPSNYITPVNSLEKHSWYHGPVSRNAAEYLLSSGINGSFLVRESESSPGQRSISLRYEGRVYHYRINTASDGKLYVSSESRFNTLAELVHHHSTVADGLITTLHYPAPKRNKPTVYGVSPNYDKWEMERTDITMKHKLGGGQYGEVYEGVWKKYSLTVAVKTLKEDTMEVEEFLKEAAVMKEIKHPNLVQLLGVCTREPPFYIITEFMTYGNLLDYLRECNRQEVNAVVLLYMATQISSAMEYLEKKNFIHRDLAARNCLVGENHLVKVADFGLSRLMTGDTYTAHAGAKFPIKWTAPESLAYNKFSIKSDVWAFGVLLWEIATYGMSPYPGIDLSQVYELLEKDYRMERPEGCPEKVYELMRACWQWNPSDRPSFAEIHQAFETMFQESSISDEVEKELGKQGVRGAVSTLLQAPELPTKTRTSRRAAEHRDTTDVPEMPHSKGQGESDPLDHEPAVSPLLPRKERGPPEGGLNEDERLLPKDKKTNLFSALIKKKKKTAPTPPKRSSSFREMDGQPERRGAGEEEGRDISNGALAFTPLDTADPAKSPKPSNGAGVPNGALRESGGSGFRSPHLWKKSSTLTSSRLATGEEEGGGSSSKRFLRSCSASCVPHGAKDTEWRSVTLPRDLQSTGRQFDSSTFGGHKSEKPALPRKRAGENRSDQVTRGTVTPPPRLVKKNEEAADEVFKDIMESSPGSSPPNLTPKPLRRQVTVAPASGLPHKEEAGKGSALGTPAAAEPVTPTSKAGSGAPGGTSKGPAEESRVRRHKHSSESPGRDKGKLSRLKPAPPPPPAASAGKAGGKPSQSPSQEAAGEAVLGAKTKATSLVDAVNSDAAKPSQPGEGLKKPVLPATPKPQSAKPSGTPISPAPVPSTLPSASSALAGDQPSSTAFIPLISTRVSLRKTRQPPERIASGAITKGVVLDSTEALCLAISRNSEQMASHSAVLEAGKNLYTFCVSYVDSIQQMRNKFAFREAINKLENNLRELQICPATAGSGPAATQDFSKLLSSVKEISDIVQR
Sequence (Q13671 whole entry, looked up): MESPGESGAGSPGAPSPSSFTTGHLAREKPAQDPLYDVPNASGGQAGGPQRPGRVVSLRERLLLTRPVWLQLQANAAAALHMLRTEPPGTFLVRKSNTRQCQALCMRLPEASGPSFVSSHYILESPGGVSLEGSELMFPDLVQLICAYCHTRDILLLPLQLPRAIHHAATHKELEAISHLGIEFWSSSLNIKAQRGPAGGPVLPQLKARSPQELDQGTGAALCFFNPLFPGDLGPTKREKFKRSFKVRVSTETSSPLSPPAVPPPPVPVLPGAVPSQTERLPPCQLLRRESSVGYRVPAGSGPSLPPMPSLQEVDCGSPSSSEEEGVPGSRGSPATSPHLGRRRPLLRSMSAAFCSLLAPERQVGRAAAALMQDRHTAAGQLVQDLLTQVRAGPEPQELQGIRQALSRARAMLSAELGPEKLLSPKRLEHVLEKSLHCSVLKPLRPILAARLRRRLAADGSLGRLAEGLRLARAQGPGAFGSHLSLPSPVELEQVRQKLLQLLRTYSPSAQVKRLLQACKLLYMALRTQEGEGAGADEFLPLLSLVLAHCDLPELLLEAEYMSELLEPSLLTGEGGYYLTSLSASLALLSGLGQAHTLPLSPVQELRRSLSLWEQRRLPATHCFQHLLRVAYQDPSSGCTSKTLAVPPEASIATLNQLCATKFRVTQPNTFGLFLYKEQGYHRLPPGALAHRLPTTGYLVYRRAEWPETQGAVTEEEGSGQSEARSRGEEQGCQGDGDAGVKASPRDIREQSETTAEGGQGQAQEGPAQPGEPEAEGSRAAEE

Compound	IC50
COc1cc(OCc2ccccc2)ccn1	> 73.5 µM (inactive)
O=c1cc(OCc2ccc(F)cc2)cc[nH]1	0.0194 µM
COc1cc(OCc2ccc(F)cc2)ccn1	inactive
COc1ccc(COc2ccnc(OC)c2)cc1	> 73.5 µM (inactive)
Nc1cc(OCc2ccccc2)ccn1	> 73.5 µM (inactive)
COc1ccc(COc2cc[nH]c(=O)c2)cc1	0.0398 µM

Further lines, results first:

IC50	Compound
0.0231 µM	O=c1cc(OCc2ccccc2)cc[nH]1
inactive	Cn1ccc(OCc2ccc(F)cc2)cc1=O
> 73.5 µM (inactive)	Cn1ccc(OCc2ccccc2)cc1=O
> 73.5 µM (inactive)	COc1ccc(COc2ccn(C)c(=O)c2)cc1
